target: FXR (Homo sapiens (Human), UniProt Q96RI1); test: FXR EC50 (FXR agonist potency reported with each Example); assay type: cell-based
Sequence (Q96RI1 262-486): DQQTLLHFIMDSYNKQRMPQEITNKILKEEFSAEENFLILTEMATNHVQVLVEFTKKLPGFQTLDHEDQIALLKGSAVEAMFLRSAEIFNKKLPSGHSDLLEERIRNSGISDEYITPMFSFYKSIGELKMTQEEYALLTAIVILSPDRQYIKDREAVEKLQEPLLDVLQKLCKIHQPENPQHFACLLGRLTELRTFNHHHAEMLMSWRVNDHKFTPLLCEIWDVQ

| SMILES | EC50 [nM] |
| --- | --- |
| O=C(N(CC12CCC(c3noc(C4(C(F)(F)F)CC4)n3)(CC1)CC2)c1cccc(-c2nc(C3CC3)no2)c1)C12CC(F)(C1)C2 [Example 118, N-(3-(3-cyclopropyl-1,2,4-oxadiazol-5-yl)phenyl)-3-fluoro-N-((4-(5-(1-(trifluoromethyl)cyclopropyl)-1,2,4-oxadiazol-3-yl)bicyclo[2.2.2]octan-1-yl)methyl) bicyclo[1.1.1]pentane-1-carboxamide] | 30 |
| CC(N(C(=O)C12CC(F)(C1)C2)c1cccc(-c2cnc(C3CC3)o2)c1)C12CCC(c3nc(C4CC4)no3)(CC1)CC2 (single isomer, unassigned) [Example 216, N-(1-(4-(3-cyclopropyl-1,2,4-oxadiazol-5-yl)bicyclo[2.2.2]octan-1-yl)ethyl)-N-(3-(2-cyclopropyloxazol-5-yl)phenyl)-3-fluorobicyclo[1.1.1]pentane-1-carboxamide] | 511 |
| CC(C)(C)c1noc(C23CCC(CN(C(=O)C45CC(F)(C4)C5)c4cccc(-c5noc(C6(C)CC6)n5)c4)(CC2)CC3)n1 [Example 176, N-((4-(3-(tert-butyl)-1,2,4-oxadiazol-5-yl)bicyclo[2.2.2]octan-1-yl)methyl)-3-fluoro-N-(3-(5-(1-methylcyclopropyl)-1,2,4-oxadiazol-3-yl)phenyl)bicyclo[1.1.1]pentane-1-carboxamide] | 24 |
| CC1(c2nc(C34CCC(CN(C(=O)C56CC(F)(C5)C6)c5cccc(-c6nc(C7CC7)no6)c5)(CC3)CC4)no2)COC1 [Example 122, N-(3-(3-cyclopropyl-1,2,4-oxadiazol-5-yl)phenyl)-3-fluoro-N-((4-(5-(3-methyloxetan-3-yl)-1,2,4-oxadiazol-3-yl)bicyclo[2.2.2]octan-1-yl)methyl)bicyclo[1.1.1]pentane-1-carboxamide] | 28 |
| N#CC1(c2ccc(C34CCC(CN(C(=O)C56CC(F)(C5)C6)c5cccc(-c6nc(C7CC7)no6)c5)(CC3)CO4)cc2)CC1 [Example 146, N-((1-(4-(1-cyanocyclopropyl)phenyl)-2-oxabicyclo[2.2.2]octan-4-yl)methyl)-N-(3-(3-cyclopropyl-1,2,4-oxadiazol-5-yl)phenyl)-3-fluorobicyclo[1.1.1]pentane-1-carboxamide] | 334 |
| O=C(N(CC12CCC(c3ccc(C(F)(F)F)cn3)(CC1)CC2)c1cccc(-c2noc(C(F)F)n2)c1)C12CC(F)(C1)C2 [Example 189, N-(3-(5-(difluoromethyl)-1,2,4-oxadiazol-3-yl)phenyl)-3-fluoro-N-((4-(5-(trifluoromethyl)pyridin-2-yl)bicyclo[2.2.2]octan-1-yl)methyl)bicyclo[1.1.1]pentane-1-carboxamide] | 691 |
| O=C(C1CC(F)(F)C1)N(CC12CCC(c3nnc(C4CC4)o3)(CC1)CC2)c1cccc(-c2nc(C3CC3)no2)c1 [Example 138, N-(3-(3-cyclopropyl-1,2,4-oxadiazol-5-yl)phenyl)-N-((4-(5-cyclopropyl-1,3,4-oxadiazol-2-yl)bicyclo[2.2.2]octan-1-yl)methyl)-3,3-difluorocyclobutane-1-carboxamide] | 158 |
| Cn1nc(C23CCC(CN(C(=O)C45CC(F)(C4)C5)c4cccc(-c5noc(C6CC6)n5)c4)(CC2)CC3)cc1C1CC1 [Example 170, N-(3-(5-cyclopropyl-1,2,4-oxadiazol-3-yl)phenyl)-N-((4-(5-cyclopropyl-1-methyl-1H-pyrazol-3-yl)bicyclo[2.2.2]octan-1-yl)methyl)-3-fluorobicyclo[1.1.1]pentane-1-carboxamide] | 74 |
| COCc1nc(-c2cccc(N(CC34CCC(c5nc(C6CC6)no5)(CC3)CC4)C(=O)C3CC(C(F)F)C3)c2)cs1 (stereo not drawn) [Example 73, N-((4-(3-cyclopropyl-1,2,4-oxadiazol-5-yl)bicyclo[2.2.2]octan-1-yl)methyl)-3-(difluoromethyl)-N-(3-(2-(methoxymethyl)thiazol-4-yl)phenyl)cyclobutane-1-carboxamide] | 341 |
| CC1(c2nc(-c3cccc(N(CC45CCC(c6nc(C(F)F)no6)(CC4)CC5)C(=O)C45CC(F)(C4)C5)c3)no2)COC1 [Example 173, N-((4-(3-(difluoromethyl)-1,2,4-oxadiazol-5-yl)bicyclo[2.2.2]octan-1-yl)methyl)-3-fluoro-N-(3-(5-(3-methyloxetan-3-yl)-1,2,4-oxadiazol-3-yl)phenyl)bicyclo[1.1.1]pentane-1-carboxamide] | 139 |
| O=C(C1CC(C(F)F)C1)N(CC12CCC(c3nc(C4CC4)no3)(CC1)CC2)c1cccc(-c2nc(C(F)F)co2)c1 (stereo not drawn) [Example 43, N-((4-(3-cyclopropyl-1,2,4-oxadiazol-5-yl)bicyclo[2.2.2]octan-1-yl)methyl)-3-(difluoromethyl)-N-(3-(4-(difluoromethyl)oxazol-2-yl)phenyl)cyclobutane-1-carboxamide] | 851 |
| CC(C)c1nc(-c2cccc(N(CC34CCC(c5nc(C6CC6)no5)(CC3)CC4)C(=O)C34CC(F)(C3)C4)c2)no1 [Example 109, N-((4-(3-cyclopropyl-1,2,4-oxadiazol-5-yl)bicyclo[2.2.2]octan-1-yl)methyl)-3-fluoro-N-(3-(5-isopropyl-1,2,4-oxadiazol-3-yl)phenyl)bicyclo[1.1.1]pentane-1-carboxamide] | 55 |
| Cn1cc(-c2cccc(N(CC34CCC(c5nc(C6CC6)no5)(CC3)CC4)C(=O)C3CC(F)(F)C3)c2)nc1C1CC1 [Example 131, N-((4-(3-cyclopropyl-1,2,4-oxadiazol-5-yl)bicyclo[2.2.2]octan-1-yl)methyl)-N-(3-(2-cyclopropyl-1-methyl-1H-imidazol-4-yl)phenyl)-3,3-difluorocyclobutane-1-carboxamide] | 1440 |
| O=C(C1CC(F)(F)C1)N(CC12CCC(c3nc(C4CC4)no3)(CC1)CC2)c1cccc(-c2cnc(C3CC3)o2)c1 [Example 22, N-((4-(3-cyclopropyl-1,2,4-oxadiazol-5-yl)bicyclo[2.2.2]octan-1-yl)methyl)-N-(3-(2-cyclopropyloxazol-5-yl)phenyl)-3,3-difluorocyclobutane-1-carboxamide] | 133 |
| CC(C)c1noc(C23CCC(CN(C(=O)C45CC(F)(C4)C5)c4cccc(-c5noc(C6(C)CC6)n5)c4)(CC2)CC3)n1 [Example 175, 3-fluoro-N-((4-(3-isopropyl-1,2,4-oxadiazol-5-yl)bicyclo[2.2.2]octan-1-yl)methyl)-N-(3-(5-(1-methylcyclopropyl)-1,2,4-oxadiazol-3-yl)phenyl)bicyclo[1.1.1]pentane-1-carboxamide] | 54 |
| N#CC1(c2ccc(C34CCC(CN(C(=O)C5CC(F)(F)C5)c5cccc(-c6nc(C7CC7)no6)c5)(CC3)CO4)cc2)CC1 [Example 145, N-((1-(4-(1-cyanocyclopropyl)phenyl)-2-oxabicyclo[2.2.2]octan-4-yl)methyl)-N-(3-(3-cyclopropyl-1,2,4-oxadiazol-5-yl)phenyl)-3,3-difluorocyclobutane-1-carboxamide] | 4320 |
| O=C(N(CC12CCC(c3nc(C4CC4)no3)(CC1)CC2)c1cccc(-c2csc(CCl)n2)c1)C12CC(F)(C1)C2 [Example 30, N-(3-(2-(chloromethyl)thiazol-4-yl)phenyl)-N-((4-(3-cyclopropyl-1,2,4-oxadiazol-5-yl)bicyclo[2.2.2]octan-1-yl)methyl)-3-fluorobicyclo[1.1.1]pentane-1-carboxamide] | 112 |
| O=C(N(CC12CCC(c3nc(C4CC4)no3)(CC1)CC2)c1cccc(-c2cnn(-c3cccnc3)c2)c1)C12CC(F)(C1)C2 [Example 152, N-((4-(3-cyclopropyl-1,2,4-oxadiazol-5-yl)bicyclo[2.2.2]octan-1-yl)methyl)-3-fluoro-N-(3-(1-(pyridin-3-yl)-1H-pyrazol-4-yl)phenyl)bicyclo[1.1.1]pentane-1-carboxamide] | 162 |
| CC(C)(C)c1nc(-c2cccc(N(CC34CCC(c5ccc(C(F)(F)F)cn5)(CC3)CC4)C(=O)C34CC(F)(C3)C4)c2)no1 [Example 188, N-(3-(5-(tert-butyl)-1,2,4-oxadiazol-3-yl)phenyl)-3-fluoro-N-((4-(5-(trifluoromethyl)pyridin-2-yl)bicyclo[2.2.2]octan-1-yl)methyl)bicyclo[1.1.1]pentane-1-carboxamide] | 304 |
| COc1cccc(-c2cccc(N(CC34CCC(c5nc(C)no5)(CC3)CC4)C(=O)C34CC(F)(C3)C4)c2)c1 [Example 221, 3-fluoro-N-(3′-methoxy-[1,1′-biphenyl]-3-yl)-N-((4-(3-methyl-1,2,4-oxadiazol-5-yl)bicyclo[2.2.2]octan-1-yl)methyl)bicyclo[1.1.1]pentane-1-carboxamide] | 506 |
| COc1cc(-c2cccc(N(CC34CCC(c5ccc(C(C)(C)C#N)cc5)(CC3)OC4)C(=O)C3CCC3)c2)ccn1 [Example 223, N-((1-(4-(2-cyanopropan-2-yl)phenyl)-2-oxabicyclo[2.2.2]octan-4-yl)methyl)-N-(3-(2-methoxypyridin-4-yl)phenyl)cyclobutanecarboxamide] | 313 |
| O=C(C1CC(F)(F)C1)N(CC12CCC(c3nc(C4CC4)no3)(CC1)CC2)c1cccc(-c2nnc(C3CC3)o2)c1 [Example 87, N-((4-(3-cyclopropyl-1,2,4-oxadiazol-5-yl)bicyclo[2.2.2]octan-1-yl)methyl)-N-(3-(5-cyclopropyl-1,3,4-oxadiazol-2-yl)phenyl)-3,3-difluorocyclobutane-1-carboxamide] | 712 |
| CC(C)(O)c1coc(-c2cccc(N(CC34CCC(c5nc(C6CC6)no5)(CC3)CC4)C(=O)C3CC(C(F)F)C3)c2)n1 (stereo not drawn) [Example 17, N-((4-(3-cyclopropyl-1,2,4-oxadiazol-5-yl)bicyclo[2.2.2]octan-1-yl)methyl)-3-(difluoromethyl)-N-(3-(4-(2-hydroxypropan-2-yl)oxazol-2-yl)phenyl)cyclobutane-1-carboxamide] | 309 |
| O=C(N(CC12CCC(c3nc(C4CC4)no3)(CC1)CC2)c1cccc(-c2cnn(CC(F)(F)F)c2)c1)C12CC(F)(C1)C2 [Example 162, N-((4-(3-cyclopropyl-1,2,4-oxadiazol-5-yl)bicyclo[2.2.2]octan-1-yl)methyl)-3-fluoro-N-(3-(1-(2,2,2-trifluoroethyl)-1H-pyrazol-4-yl)phenyl)bicyclo[1.1.1]pentane-1-carboxamide] | 116 |
